Experimental data published in patent publication US10300055B2, “Treatment of parkinson's disease through ARFGAP1 inhibition” (Dalhousie University, priority 2014, dated 2019).

These compounds were tested against T1, hArfGAP1 (human ArfGAP1) (Homo sapiens, UniProt Q8N6T3) (assay: Yeast growth restoration screen: S. cerevisiae gcs1 knockout strain expressing hArfGAP1). Conditions: retest at various concentrations, FIG. 5; A600; compared with 3B-VEC empty vector strain.
T1 construct: expressed in transfected cells; host or cells: Saccharomyces cerevisiae strain PPY17:114-3B-141-A (gcs1::NatR, pdr5::HIS3, snq2::TRP1), galactose-induced
T1 sequence (Q8N6T3 whole entry): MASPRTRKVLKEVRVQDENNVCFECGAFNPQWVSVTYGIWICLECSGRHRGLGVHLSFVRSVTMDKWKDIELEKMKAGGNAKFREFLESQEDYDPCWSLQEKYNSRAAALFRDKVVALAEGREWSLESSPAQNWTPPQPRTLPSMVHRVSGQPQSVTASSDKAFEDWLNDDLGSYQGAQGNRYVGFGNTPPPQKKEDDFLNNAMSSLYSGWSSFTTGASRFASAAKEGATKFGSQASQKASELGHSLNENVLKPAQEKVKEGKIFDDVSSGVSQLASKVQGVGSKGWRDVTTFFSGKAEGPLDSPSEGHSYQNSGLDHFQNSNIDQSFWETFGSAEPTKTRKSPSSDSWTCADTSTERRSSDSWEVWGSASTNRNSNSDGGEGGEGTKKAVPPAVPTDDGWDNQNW
Format: cell-based
Source text: Overexpression of heterologous proteins in the yeast Saccharomyces cerevisiae often inhibits its growth, while inhibitors of the overexpressed proteins can restore growth. These simple observations form the basis of a powerful assay to identify inhibitors of such proteins. An expression plasmid for the inducible expression of a gene of interest is introduced into a yeast strain rendered more sensitive to chemicals by deletion of efflux pumps. Protein expression is induced, cells are exposed to test chemicals, and growth is measured by optical density at 600 nm (OD600 or A600) reading.
In the instant case, a S. cerevisiae gcs1 knockout strain is employed bearing a vector expressing the heterologous protein hArfGAP1 (human ArfGAP1, the human ortholog of yeast GCS1). Generally, expression of ArfGAP1 will suppress growth of gcs1 knockout yeast and thus small molecules that inhibit ArfGAP1 will lead to observable increases in growth. This in turn allows for the direct identification of small molecules that could be used to treat LRRK2-mutation induced PD.
PPY17:114-3B-vec (gcs1::NatR, pdr5::HIS3, snq2::TRP1, ura3, ade2, carrying plasmid pRS315) [empty vector control strain]; PPY17:114-3B-141-A (gcs1::NatR, pdr5::HIS3, snq2::TRP1, ura3, ade2, carrying plasmid pPP16:141 pGAL1-hArfGAP1) [human ArfGAP1-expressing strain].
1. The day before screening, the control strain containing the empty plasmid and the selected test strain bearing the plasmid with the gene of interest were inoculated into 2 mL of SC selection medium containing 2% glucose. Cells were grown overnight at 30° C. with shaking at 220 rpm. Note: it can be observed that the yeast strain expressing human expression vector and the yeast strain containing the empty vector grow at the same rate in glucose, which represses ArfGAP1 expression.
4. The pellet was suspended in 1-mL sterile water and the A 600 was measured. […]
9. Stacks of five plates were shaken on a vortexer at low speed (e.g., setting 4 of a Genie 2 Vortex mixer) for 90 s to resuspend the yeast cells, and the A 600 was measured using a 96-well plate reader. […]

Growth of yeast ArfGAP1 gcs1 knockout strains, dose-dependent growth:
O=[N+]([O-])c1ccc(N2CCN(Cc3cccs3)CC2)cc1 [compound 5261344]
CC(=O)c1ccc(N2CCN(CC3=CC[C@H]4C[C@@H]3C4(C)C)CC2)cc1 [compound 5429814]
C/C=C(\C)CN1CCN(c2ccc(C(C)=O)cc2)CC1 [compound 5431942]
